According to PubChem BioAssay AID1845209 (Molecular Pharmacology Branch, DTP, NCI, 2023):

Tested on: NCI-H211 tumor spheroids, viability percent test/control
Test: Anticancer human tumor NCI-H211 cell line growth inhibition;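 further: spheroids exposed to agents for seven days before readout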
Details: spheroids with HUVEC and MSC; for IC50: curve of first compound; for viability, T/C: stronger effect = lower value; active means viability on the fitted dose curve at most 10% of control; inactive means the rest
Text: Multicellular complex tumor spheroid response to DNA repair inhibitors in combination with DNA-damaging drugs
This study explores the anticancer activities of DNA-damaging drugs and inhibitors of DNA damage repair, both as single agents and in combinations. Complex tumor spheroids comprised of malignant cells, endothelial cells and mesenchymal stem cells served as an in vitro model for human solid tumors. This model system incorporates physiologically relevant features and patient-derived or established malignant cell lines with clinically relevant genetic alterations from many tumor types. Twenty-six patient-derived or established malignant cell lines were evaluated representing sarcoma, melanoma, small cell lung cancer (SCLC), non-small cell lung cancer (NSCLC), as well as bladder, ovarian and pancreatic cancers. The concentration ranges selected for each drug and investigational agent were based upon clinically achievable concentrations if the clinical Cmax of the agent was known.
Compounds. The drugs and compounds olaparib (NSC753686), talazoparib (NSC767125), berzosertib (NSC777718), elimusertib (NSC800525), nedisertib (NSC802822), VX-984 (NSC792969), AZD-1390 (NSC803789), temozolomide (NSC362856), topotecan (NSC609699), trabectedin (NSC813783), staurosporine (NSC755774), and gemcitabine (NSC613327) were obtained from the National Cancer Institute (NCI) Developmental Therapeutics Program Chemical Repository. The FDA-approved anticancer drug set is available from the Developmental Therapeutics Program at https://dtp.cancer.gov/organization/dscb/obtaining/available_plates.htm. […] The stock solutions were prepared in dimethyl sulfoxide (DMSO, Sigma-Aldrich, St. Louis, MO, cat. D2650) at 400-fold the tested concentration and stored at -70 degrees C. Prior to their use, the stock solutions were diluted in fresh medium and the final DMSO concentration in the assay was 0.25% (v/v). All drugs and investigational agents were tested over a range starting from a high concentration at or near the clinical Cmax and decreasing in half-log increments. If the clinical Cmax for an agent had not been determined, the highest concentration tested was 10 microM.
Cell Lines. The patient-derived cancer cell (PDC) lines: 156681-154-R-J1-PDC, 283228-195-R-J1-PDC, 287954-098-R-J1-PDC, 292921-168-R-J2-PDC, 349418-098-R-PDC, 425362-245-T-J1-PDC, 556581-035-R-J1-PDC, and BL0293-F563-PDC were received from the NCI Patient-Derived Models Repository (PDMR, https://pdmr.cancer.gov). The established cell lines HS-SY-2 (RRID:CVCL_8719), MPNST, and SYO-1 (RRID:CVCL_7146) were obtained from the Sloan Kettering Institute. The alveolar soft parts sarcoma cell line ASPS-1 (RRID:CVCL_S738) was established at the NCI and grown from internal seed stocks. The following established cell lines were purchased from the American Type Culture Collection (ATCC, Manassas, VA): G-401 (ATCC, cat. CRL-1441, RRID:CVCL_0270), SW982 (ATCC, cat. HTB-93, RRID:CVCL_1734), VA-ES-BJ (ATCC, cat. CRL-2138, RRID:CVCL_1785), NCI-H719 (ATCC, cat. CRL-5837, RRID:CVCL_1582), NCI-H196 (ATCC, cat. CRL-5823, RRID:CVCL_1509), NCI-H841 (ATCC, cat. CRL-5845, RRID:CVCL_1595), NCI-H1618 (ATCC, cat. CRL-5879, RRID:CVCL_1480), NCI-H1876 (ATCC, cat. CRL-5902, RRID:CVCL_1503), DMS 114 (ATCC, cat. CRL-2066; RRID:CVCL_1174), NCI-H211 (ATCC, cat. CRL-5824; RRID:CVCL_1529), and SW 1271 (ATCC, cat. CRL-2177, RRID:CVCL_1716). The small cell lung cancer cell line COR-L88 was purchased from Sigma-Aldrich (cat. 92031917-1VL, RRID:CVCL_1141). The non-small cell lung cancer cell lines NCI-H226 (RRID:CVCL_1544) and NCI-H322M (RRID:CVCL_1557) were established at the NCI and grown from internal seed stocks. Pooled donor human umbilical vein endothelial cells (HUVEC, Lonza, cat. CC-2519) and human mesenchymal stem cells (hMSC, Lonza, cat. PT-2501) were purchased from Lonza (Walkersville, MD).
Cell Culture. All cells were maintained in an incubator at 37 degrees C and 5% CO2 with 95% humidity. […]

Cc1cc(C)c(CNC(=O)c2cc(-c3ccc(CN4CCOCC4)cc3)cc3c2cnn3C2CCCC2)c(=O)[nH]1 + CC[C@@]1(O)C(=O)OCc2c1cc1n(c2=O)Cc2cc3c(CN(C)C)c(O)ccc3nc2-1
active: viability, T/C (second compound 0.00949 µM, first compound 0.1 µM) 8.26% | viability, T/C (second compound 0.00949 µM, first compound 0.316 µM) 5.43% | viability, T/C (second compound 0.00949 µM, first compound 1 µM) 3.96% | viability, T/C (second compound 0.00949 µM, first compound 3.16 µM) 2.11% | viability, T/C (second compound 0.00949 µM, first compound 10 µM) 1.31% | viability, T/C (second compound 0.03 µM, first compound 0.0316 µM) 0.94% | viability, T/C (second compound 0.03 µM, first compound 0.1 µM) 1.14% | viability, T/C (second compound 0.03 µM, first compound 0.316 µM) 1.13% | viability, T/C (second compound 0.03 µM, first compound 1 µM) 0.98% | viability, T/C (second compound 0.03 µM, first compound 3.16 µM) 1.02% | viability, T/C (second compound 0.03 µM, first compound 10 µM) 0.92% | viability, T/C (second compound 0.0949 µM, first compound 0.0316 µM) 1.01% | viability, T/C (second compound 0.0949 µM, first compound 0.1 µM) 1.06% | viability, T/C (second compound 0.0949 µM, first compound 0.316 µM) 0.94% | viability, T/C (second compound 0.0949 µM, first compound 1 µM) 1.17% | viability, T/C (second compound 0.0949 µM, first compound 3.16 µM) 1.46% | viability, T/C (second compound 0.0949 µM, first compound 10 µM) 1.47% | viability, T/C (second compound 0.3 µM, first compound 0.0316 µM) 1.21% | viability, T/C (second compound 0.3 µM, first compound 0.1 µM) 1.42% | viability, T/C (second compound 0.3 µM, first compound 0.316 µM) 1.39% | viability, T/C (second compound 0.3 µM, first compound 1 µM) 1.4% | viability, T/C (second compound 0.3 µM, first compound 3.16 µM) 1.35% | viability, T/C (second compound 0.3 µM, first compound 10 µM) 1.52%
< 31.6 nM: IC50 (second compound 0.00949 µM) | IC50 (second compound 0.03 µM) | IC50 (second compound 0.0949 µM) | IC50 (second compound 0.3 µM)
inactive: viability, T/C (second compound 0.003 µM, first compound 0.0316 µM) 83.3% | viability, T/C (second compound 0.003 µM, first compound 0.1 µM) 78.6% | viability, T/C (second compound 0.003 µM, first compound 0.316 µM) 74.2% | viability, T/C (second compound 0.003 µM, first compound 1 µM) 58.4% | viability, T/C (second compound 0.003 µM, first compound 3.16 µM) 42.8% | viability, T/C (second compound 0.003 µM, first compound 10 µM) 24.6% | viability, T/C (second compound 0.00949 µM, first compound 0.0316 µM) 10.6%
1890 nM: IC50 (second compound 0.003 µM)

Cc1sc2c(c1C)C(c1ccc(Cl)cc1)=NC(CC(=O)Nc1ccc(O)cc1)c1nnc(C)n1-2 (stereo not given) + CC[C@@]1(O)C(=O)OCc2c1cc1n(c2=O)Cc2cc3c(CN(C)C)c(O)ccc3nc2-1
active: viability, T/C (second compound 0.003 µM, first compound 0.03 µM) 3.07% | viability, T/C (second compound 0.003 µM, first compound 0.0949 µM) 0.77% | viability, T/C (second compound 0.003 µM, first compound 0.3 µM) 0.53% | viability, T/C (second compound 0.003 µM, first compound 0.949 µM) 0.42% | viability, T/C (second compound 0.003 µM, first compound 3 µM) 0.44% | viability, T/C (second compound 0.00949 µM, first compound 0.00949 µM) 3.11% | viability, T/C (second compound 0.00949 µM, first compound 0.03 µM) 0.89% | viability, T/C (second compound 0.00949 µM, first compound 0.0949 µM) 0.89% | viability, T/C (second compound 0.00949 µM, first compound 0.3 µM) 0.57% | viability, T/C (second compound 0.00949 µM, first compound 0.949 µM) 0.46% | viability, T/C (second compound 0.00949 µM, first compound 3 µM) 0.57% | viability, T/C (second compound 0.03 µM, first compound 0.00949 µM) 0.97% | viability, T/C (second compound 0.03 µM, first compound 0.03 µM) 0.72% | viability, T/C (second compound 0.03 µM, first compound 0.0949 µM) 0.81% | viability, T/C (second compound 0.03 µM, first compound 0.3 µM) 0.54% | viability, T/C (second compound 0.03 µM, first compound 0.949 µM) 0.57% | viability, T/C (second compound 0.03 µM, first compound 3 µM) 0.55% | viability, T/C (second compound 0.0949 µM, first compound 0.00949 µM) 0.76% | viability, T/C (second compound 0.0949 µM, first compound 0.03 µM) 0.8% | viability, T/C (second compound 0.0949 µM, first compound 0.0949 µM) 0.73% | viability, T/C (second compound 0.0949 µM, first compound 0.3 µM) 0.79% | viability, T/C (second compound 0.0949 µM, first compound 0.949 µM) 0.59% | viability, T/C (second compound 0.0949 µM, first compound 3 µM) 0.6% | viability, T/C (second compound 0.3 µM, first compound 0.00949 µM) 0.94% | viability, T/C (second compound 0.3 µM, first compound 0.03 µM) 0.9% | viability, T/C (second compound 0.3 µM, first compound 0.0949 µM) 0.83% | viability, T/C (second compound 0.3 µM, first compound 0.3 µM) 0.85% | viability, T/C (second compound 0.3 µM, first compound 0.949 µM) 0.54% | viability, T/C (second compound 0.3 µM, first compound 3 µM) 0.51%
< 9.49 nM: IC50 (second compound 0.003 µM) | IC50 (second compound 0.00949 µM) | IC50 (second compound 0.03 µM) | IC50 (second compound 0.0949 µM) | IC50 (second compound 0.3 µM)
inactive: viability, T/C (second compound 0.003 µM, first compound 0.00949 µM) 30.2%
